# Laboratory results: patent US20240294910A1, “NOVEL THERAPEUTIC AGENT FOR SEPTICEMIA, AND A METHOD FOR SCREENING FOR SAME” (Chugai Seiyaku Kabushiki Kaisha, priority 2014, published 2024)
# Tests used:
# Assay type in all cases: cell-based, mouse
# Arid5A mRNA = Arid5A mRNA expression by qPCR in LPS-stimulated peritoneal macrophages; conditions: peritoneal macrophages from C57BL/6 mice, LPS (1 g/mL), test agent 20 μM, 2 hours after LPS stimulation, vs absence of CPZ; FIG. 6
# Procedure: (§1) Peritoneal macrophages from C57BL/6 mice (aged 6 to 8 weeks) were stimulated with LPS ([…]) in the presence or absence of a test agent (20 μM). The relative expression levels of mRNAs of Arid5A, IL-6, and TNF-α were determined in the stimulated peritoneal macrophages by quantitative PCR (qPCR). The expression level of Arid5A mRNA was determined 2 hours after LPS stimulation. The expression levels of IL-6 mRNA and TNF-α mRNA were determined 2 hours, 6 hours, 12 hours, and 24 hours after LPS stimulation. FIGS. 6 to 8 show the results when chlorpromazine (CPZ) was used as a test agent.
# IL-6 mRNA = IL-6 mRNA expression by qPCR in LPS-stimulated peritoneal macrophages; conditions: LPS (1 g/mL), test agent 20 μM, vs absence of CPZ, FIG. 7
# Procedure: as §1
# TNF-α mRNA = TNF-α mRNA expression by qPCR in LPS-stimulated peritoneal macrophages; conditions: LPS (1 g/mL), test agent 20 μM, determined 2, 6, 12 and 24 hours after LPS stimulation, FIG. 8
# Procedure: as §1
compound,measurement,setting,value
"CN(C)CCCN1c2ccccc2Sc2ccc(Cl)cc21 [CPZ, chlorpromazine]",expression of Arid5A mRNA (qPCR),Arid5A mRNA,markedly suppressed
same,expression of IL-6 mRNA (qPCR),IL-6 mRNA; 2 hours after LPS stimulation,markedly suppressed
same,expression of IL-6 mRNA (qPCR),IL-6 mRNA; 6 hours after LPS stimulation,markedly suppressed
same,expression of TNF-α mRNA (qPCR),TNF-α mRNA,no effect
